Results from US6737383B1, “Herbicidal oxadiazolidines” (priority 1999, dated 2004).

Legend:
blackgrass = assay: Test E blackgrass; type: in vivo, Alopecurus myosuroides; conditions: Preemergence; for Plant response rating, Blackgrass: 0 to 100 scale where 0 is no effect and 100 is complete control
wild oat [1] = assay: Test E wild oat; type: in vivo, Avena fatua; conditions: Preemergence; for Plant response rating, Wild oat: 0 to 100 scale where 0 is no effect and 100 is complete control
surinam grass = assay: Test B pre/postemergence surinam grass; type: in vivo, Brachiaria decumbens
Procedure, shortened: (§1)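 Herbicidal effect was estimated by eye on a ten-point control scale after plants spent twelve to sixteen days in a greenhouse following soil or foliar treatment. Foliar sprays targeted plants at one to four leaves; all doses were formulated in a non-phytotoxic solvent with surfactant.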

winter wheat [2] = assay: Test E winter wheat; type: in vivo, Triticum aestivum; conditions: Preemergence; for Plant response rating, Wheat (winter): 0 to 100 scale where 0 is no effect and 100 is complete control
wild oat [3] = assay: Test B pre/postemergence wild oat; type: in vivo, Avena fatua
Procedure, shortened: as §1

bedstraw = assay: Test B pre/postemergence bedstraw; type: in vivo, Galium aparine
Procedure, shortened: as §1

green foxtail = assay: Test E green foxtail; type: in vivo, Setaria viridis; conditions: Preemergence; for Plant response rating, Green foxtail: 0 to 100 scale where 0 is no effect and 100 is complete control
winter barley = assay: Test E winter barley; type: in vivo, Hordeum vulgare; conditions: Preemergence; for Plant response rating, Barley (winter): 0 to 100 scale where 0 is no effect and 100 is complete control
winter wheat [4] = assay: Test E winter wheat; type: in vivo, Triticum aestivum; conditions: Postemergence, 0 to 100 scale
Procedure, shortened: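 For postemergence, sowings are timed so plants reach the 1- to 4-leaf stage at spraying. Test compound is applied in a surfactant-containing solvent mixture that is non-phytotoxic. Response is judged by eye against untreated controls after approximately 21 to 28 days.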

Italian ryegrass = assay: Test E Italian ryegrass; type: in vivo, Lolium multiflorum; conditions: Preemergence; for Plant response rating, I. Ryegrass: 0 to 100 scale where 0 is no effect and 100 is complete control
[5] = Postemergence, Rate 125 g/ha, scale of 0 to 10 where 0 is no effect and 10 is complete control
[6] = Preemergence, Rate 62 g/ha, scale of 0 to 10 where 0 is no effect and 10 is complete control
[7] = Preemergence, Rate 125 g/ha, 0 is no effect, 10 is complete control
[8] = Preemergence, Rate 250 g/ha, scale 0 to 10, 0 is no effect, 10 is complete control
[9] = Preemergence, Rate 500 g/ha, scale 0 to 10 (0 no effect, 10 complete control)
[10] = Rate 62 g/ha, Postemergence, scale of 0 to 10 where 0 is no effect and 10 is complete control
[11] = Rate 250 g/ha, Postemergence, scale 0 to 10, 0 is no effect, 10 is complete control

## CC(C)N(C(=O)n1oc(=O)n([C@@H](C)c2ccccc2)c1=O)c1ccc(Cl)cc1 [Compound 174]
blackgrass; Rate 250 g/ha
  Blackgrass plant response rating (0 to 100 scale): 30
blackgrass; Rate 500 g/ha
  Plant response rating, Blackgrass: 50
blackgrass; Rate 1000 g/ha
  Plant response rating, Blackgrass: 55
Wild oat [1]; Rate 250 g/ha
  Wild oat plant response rating (0 to 100 scale): 50
Wild oat [1]; Rate 500 g/ha
  Plant response rating, Wild oat: 40
Wild oat [1]; Rate 1000 g/ha
  Plant response rating, Wild oat: 50
Surinam grass; [5]
  B. signalgrass plant response rating: 0
Surinam grass; [6]
  B. signalgrass plant response rating: 0
Surinam grass; [7]
  B. signalgrass plant response rating (0 to 10 scale): 0
Surinam grass; [8]
  B. signalgrass plant response rating: 0
Surinam grass; [9]
  B. signalgrass plant response rating: 4
Surinam grass; [10]
  B. signalgrass plant response rating: 0
Surinam grass; [11]
  Plant response rating, B. signalgrass: 0
Surinam grass; Rate 500 g/ha, Postemergence, scale 0 to 10, 0 no effect, 10 complete control
  B. signalgrass plant response rating: 0
Winter wheat [2]; Rate 250 g/ha
  Wheat (winter) plant response rating (0 to 100 scale): 60
Winter wheat [2]; Rate 500 g/ha
  Plant response rating, Wheat (winter): 50
Winter wheat [2]; Rate 1000 g/ha
  Plant response rating, Wheat (winter): 40
Wild oat [3]; [6]
  Wild oats plant response rating: 0
Wild oat [3]; [7]
  Wild oats plant response rating (0 to 10 scale): 0
Wild oat [3]; [8]
  Wild oats plant response rating: 0
Wild oat [3]; [9]
  Wild oats plant response rating: 0
Wild oat [3]; [11]
  Plant response rating, Wild oats: 0
Wild oat [3]; Rate 500 g/ha, Postemergence, scale 0 to 10
  Wild oats plant response rating: 0
bedstraw; [5]
  Bedstraw plant response rating: 4
bedstraw; [6]
  Bedstraw plant response rating: 0
bedstraw; [7]
  Bedstraw plant response rating (0 to 10 scale): 0
bedstraw; [9]
  Bedstraw plant response rating: 3
bedstraw; [10]
  Bedstraw plant response rating: 0
bedstraw; [11]
  Plant response rating, Bedstraw: 6
Green foxtail; Rate 250 g/ha
  Green foxtail plant response rating (0 to 100 scale): 30
Green foxtail; Rate 500 g/ha
  Plant response rating, Green foxtail: 50
Green foxtail; Rate 1000 g/ha
  Plant response rating, Green foxtail: 85
Winter barley; Rate 250 g/ha
  Barley (winter) plant response rating (0 to 100 scale): 0
Winter barley; Rate 500 g/ha
  Plant response rating, Barley (winter): 0
Winter barley; Rate 1000 g/ha
  Plant response rating, Barley (winter): 10
Winter wheat [4]; Rate 1000 g/ha, 0 is no effect and 100 is complete control
  Plant response rating, Wheat (winter): 50
Winter wheat [4]; Rate 500 g/ha, 0 is no effect, 100 is complete control
  Plant response rating, Wheat (winter): 40
Italian ryegrass; Rate 250 g/ha
  I. Ryegrass plant response rating (0 to 100 scale): 0
Italian ryegrass; Rate 500 g/ha
  Plant response rating, I. Ryegrass: 20
Italian ryegrass; Rate 1000 g/ha
  Plant response rating, I. Ryegrass: 40
